Molecules are shown by their SMILES.

Results on 18 compounds are retold here after patent publication US20060058372A1, “N-Benzodioxolyl, n-benzodioxanyl and n-benzodioxepinyl arylcarboxamide derivatives and pharmaceutical compositions comprising them” (priority 2002, published 2006).

Test [1] deals with apo B secretion in HepG2 cells. The test can be described thus: Inhibition of apo B secretion in the HepG2 human cell line (sandwich ELISA). As to conditions: 24 hours incubation, culture supernatant, ELISA specific for human apo B, read-out: IC50 (concentration that produces a 50% inhibition of apo B secretion in the HepG2 cells). Type of test: cell-based. The protocol:
Analysis of the secretion of apo B in the HepG2 human cell line:
The activity of a compound according to the invention can be evaluated by measuring the inhibition of apo B secretion in HepG2 cells.
The HepG2 cells (ECACC—No. 85011430) are used as model in the study of the in vitro hepatic secretion of lipoproteins (Dixon J. and Ginsberg H.-J. Lipid. Res.—1993, 34:167-179).
The HepG2 cells are cultured in Dulbecco's modified Eagle's medium comprising 10% foetal calf serum (DMEM and FBS-Gibco) in 96-well plates under an atmosphere of 5% carbon dioxide for 24 hours (about 70% confluence).
The test compounds are dissolved at a concentration of 2 or 10 mM in dimethyl sulfoxide (DMSO). Serial dilutions (1:3.16) are made in DMSO and are added (1:200—Robot Multimek Beckman) to the growth medium (200 microlitres) and then finally incubated for 24 hours in the various wells containing the HepG2 cells.
The 24-hour culture supernatant diluted to 1:5 (phosphate-buffered saline: PBS comprising 1% bovine serum albumin) is tested according to a sandwich-ELISA method specific for human apo B.
The results are expressed in terms of IC50, i.e. the concentration that produces a 50% inhibition of apo B secretion in the HepG2 cells.

For test [2], the target named is T1, microsomal triglyceride transfer protein (MTP) (Mesocricetus auratus, UniProt P55158).
T1 construct: The supernatant comprising the soluble MTP is dialysed; from tissue; host or cells: golden hamster liver microsomes, deoxycholate-solubilised
T1 sequence (P55158 19-895): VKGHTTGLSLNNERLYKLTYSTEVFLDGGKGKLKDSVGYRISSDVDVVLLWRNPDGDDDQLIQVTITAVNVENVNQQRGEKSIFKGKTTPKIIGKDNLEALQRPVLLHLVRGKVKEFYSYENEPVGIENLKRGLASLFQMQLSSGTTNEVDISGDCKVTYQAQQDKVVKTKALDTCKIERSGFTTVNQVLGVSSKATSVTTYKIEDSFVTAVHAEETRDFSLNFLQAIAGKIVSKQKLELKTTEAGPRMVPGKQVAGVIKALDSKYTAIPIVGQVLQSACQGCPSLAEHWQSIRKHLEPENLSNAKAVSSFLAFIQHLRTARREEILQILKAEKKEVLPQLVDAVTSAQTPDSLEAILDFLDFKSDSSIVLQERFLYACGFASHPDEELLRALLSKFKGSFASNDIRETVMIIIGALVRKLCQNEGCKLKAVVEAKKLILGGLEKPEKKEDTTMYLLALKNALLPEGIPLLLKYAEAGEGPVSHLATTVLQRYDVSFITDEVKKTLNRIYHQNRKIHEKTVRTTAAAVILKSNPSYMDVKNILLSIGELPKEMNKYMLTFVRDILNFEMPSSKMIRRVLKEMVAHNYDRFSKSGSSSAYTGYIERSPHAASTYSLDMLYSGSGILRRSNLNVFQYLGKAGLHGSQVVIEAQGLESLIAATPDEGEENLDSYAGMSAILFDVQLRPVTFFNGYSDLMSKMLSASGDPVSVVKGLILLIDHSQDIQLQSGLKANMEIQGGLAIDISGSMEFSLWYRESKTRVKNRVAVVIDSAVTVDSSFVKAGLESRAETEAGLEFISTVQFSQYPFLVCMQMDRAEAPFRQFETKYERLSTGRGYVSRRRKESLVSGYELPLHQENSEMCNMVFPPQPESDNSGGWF
T1 sequence (Q8R4U2 20-509 partner): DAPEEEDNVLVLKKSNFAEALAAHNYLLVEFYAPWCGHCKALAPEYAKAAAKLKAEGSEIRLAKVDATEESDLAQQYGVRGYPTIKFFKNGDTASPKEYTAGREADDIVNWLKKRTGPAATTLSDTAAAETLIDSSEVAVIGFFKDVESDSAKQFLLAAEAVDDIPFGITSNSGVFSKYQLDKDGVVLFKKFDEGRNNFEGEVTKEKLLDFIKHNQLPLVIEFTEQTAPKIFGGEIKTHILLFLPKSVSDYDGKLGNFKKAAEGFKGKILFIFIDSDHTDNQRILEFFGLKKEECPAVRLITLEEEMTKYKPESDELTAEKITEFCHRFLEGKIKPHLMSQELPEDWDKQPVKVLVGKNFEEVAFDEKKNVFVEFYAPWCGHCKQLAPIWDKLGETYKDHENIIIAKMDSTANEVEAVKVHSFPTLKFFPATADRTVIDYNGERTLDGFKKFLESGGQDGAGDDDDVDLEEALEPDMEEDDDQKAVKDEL
The experiment in a line: Inhibition of MTP activity: transfer of [3H]-triolein from donor liposomes to biotinylated LDL (SPA). Format: biochemical. The conditions noted are these: MTP from golden hamster liver microsomes; incubation 18-24 hours at 37° C.; read-out: IC50 (concentration that allows a 50% inhibition of MTP). The method, then: Analysis of the Inhibition of MTP Activity
The inhibition of the activity of microsomal triglyceride transfer protein (MTP) was tested by using the following operating protocol.
The inhibition of MTP activity with a compound can be quantified by observing the inhibition of the transfer of a labelled triglyceride, from a donor particle to an acceptor particle, in the presence of MTP. The procedure for the preparation of MTP is based on the method by Wetterau and Zilversmit (Biochem. Biophys. Acta (1986) 875: 610). A few grams of golden hamster liver are taken and then rinsed several times in a 250 mM sucrose solution at 0° C. All the following steps proceed at +4° C. A homogenate at a concentration of 50% in 250 mM sucrose is prepared using a Teflon mill and then centrifuged for 10 minutes at 10 000×g at +4° C. The supernatant is then centrifuged at 105 000×g for 75 minutes at +4° C. The supernatant is discarded and the microsomal pellet is taken up in 3 ml (per g of starting liver) of Tris/HCl 150 mM pH 8.0. 1 ml aliquot fractions are stored at −80° C. until the time of use.
After thawing a fraction of microsomes (1 ml), 12 ml of refrigerated Tris/HCl 50 mM, KCl 50 mM, MgCl2 5 mM pH 7.4 buffers and 1.2 ml of deoxycholate (0.54% in water) are added. After incubation for 30 minutes at +4° C. with gentle agitation, the suspension is centrifuged at 105 000×g for 75 minutes. The supernatant comprising the soluble MTP is dialysed against Tris/HCl 150 mM, NaCl 40 mM, EDTA 1 mM, 0.02% sodium azide pH 7.4 buffer (5 times one litre over 2-3 days). The MTP is stored at +4° C., is stable for at least 30 days and is used in unmodified form in the test.
The donor particles (liposomes) are prepared from 208 μl of L-phosphatidylcholine at a concentration of 10 mg/ml in chloroform, and 480 μl of [3H]-triolein at a concentration of 0.5 mCi/ml in toluene. After stirring, the solution is evaporated under nitrogen, taken up in 6 ml of Tris/HCl 50 mM, KCl 50 mM, MgCl2 5 mM pH 7.4 buffer and incubated in an ultrasound bath for 30 minutes at room temperature. The liposomes are stored at +4° C. and sonicated again for 10 minutes before each use.
The acceptor particles are biotinylated low density lipoproteins (LDL-biot). These particles are supplied by the company Amersham.
The reaction mixture is prepared in untreated ½ well white plates (Corning Costar) by addition, in the following order, of: 5 μl of HEPES 50 mM, NaCl 150 mM, BSA 0.1% (w/v), 0.05% sodium azide (w/v), pH 7.4 buffer; 5 μl of liposomes; 5 μl of LDL-biot; 5 μl of test products in DMSO; 5 μl of MTP. After incubation for 18-24 hours at 37° C., the reaction is stopped by adding 100 μl of Amersham SPA (Scintillation Proximity Assay) beads coupled to streptavidin, and the radioactivity is counted using a Top Count (Packard) at least one hour later. The inhibition of the transfer of the triglycerides with a compound is reflected by a reduction in the transferred radioactivity.
The results are expressed in terms of the IC50, i.e. the concentration that allows a 50% inhibition of MTP.
(In general: Microsomes from liver hold many membrane-bound enzymes, among them those of drug oxidation.)

Consider `COCC1COc2ccc(NC(=O)c3ccccc3-c3ccc(C(C)C)cc3)cc2O1` (stereo not drawn) [Example 20, 4′-isopropylbiphenyl-2-carboxylic acid (3-methoxymethyl-2,3-dihydrobenzo[1,4]dioxin-6-yl)amide], for which the IC50 in test [1] amounted to 65 nM.

With `CCNC(=O)OCC1COc2ccc(NC(=O)c3ccccc3-c3ccc(C(C)C)cc3)cc2O1` (stereo not drawn) [Example 21, 7-[(4′-isopropylbiphenyl-2-carbonyl)amino]-2,3-dihydrobenzo[1,4]dioxin-2-ylmethyl ethylcarbamate], in test [1], the IC50 worked out at 197 nM.

Regarding `CCc1ccc(-c2ccccc2C(=O)Nc2ccc3c(c2)OC(F)(F)O3)cc1` [Example 32, 4′-ethylbiphenyl-2-carboxylic acid (2,2-difluorobenzo[1,3]dioxol-5-yl)-amide], in test [1], the IC50 was found to be 97 nM.

Consider `CC(C)c1ccc(-c2ccccc2C(=O)Nc2ccc3c(c2)OC(F)(F)O3)cc1` [Example 33, (4′-isopropylbiphen-2-yl)-N-(2,2-difluorobenzo[1,3]dioxol-5-yl)carboxamide], for which the IC50 in test [2] was found to be 230 nM; in test [1], 68 nM.

`O=C(Nc1ccc2c(c1)OC(F)(F)O2)c1ccccc1-c1ccc(OC(F)(F)F)cc1` [Example 40, 5-(4′-trifluoromethoxybiphen-2-ylcarbonylamino)-2,2-difluorobenzo[1,3]-dioxole]: the IC50 in test [2] is 220 nM.

Regarding `CC(C)c1ccc(-c2ccccc2C(=O)Nc2ccc3c(c2)OCO3)cc1` [Example 41, 5-(4′-isopropylbiphen-2-ylcarbonylamino)benzo[1,3]dioxole], the IC50 in test [1] is 129 nM.

For the compound `CCc1ccc(-c2cccc(C)c2C(=O)Nc2ccc3c(c2)OC(F)(F)O3)cc1` [Example 42, 5-(4′-ethyl-3-methylbiphen-2-ylcarbonylamino)-2,2-difluorobenzo[1,3]-dioxole], in test [2], the IC50 turned out to be 270 nM.

`CCNC(=O)OCCc1ccc(-c2ccccc2C(=O)Nc2ccc3c(c2)OC(F)(F)O3)cc1` [Example 48, 5-(4′-ethylaminocarbonyloxyethylbiphen-2-ylcarbonylamino)-2,2-difluorobenzo[1,3]dioxole]: in test [2], the IC50 came to 340 nM.

For the compound `Cc1cccc(-c2ccc(OC(F)(F)F)cc2)c1C(=O)Nc1ccc2c(c1)OC(F)(F)O2` [Example 49, 5-(4′-trifluoromethoxy-3-methylbiphen-2-ylcarbonylamino)-2,2-difluorobenzo[1,3]dioxole], the IC50 in test [2] is 136 nM; in test [1], 302 nM.

As for `O=C(Nc1ccc2c(c1)OCO2)c1ccccc1-c1ccc(OC(F)(F)F)cc1` [Example 51, 4′-trifluoromethoxybiphenyl-2-carboxylic acid benzo[1,3]dioxol-5-ylamide], in test [1], the IC50 was 72 nM.

As to `O=C(Nc1ccc2c(c1)OC(F)(F)O2)c1ccccc1-c1ccc(CCO)cc1` [Example 53, 4′-(2-hydroxyethyl)biphenyl-2-carboxylic acid (2,2-difluorobenzo[1,3]-dioxol-5-yl)amide], the IC50 in test [1] amounted to 195 nM.

On to `CC(C)Cc1ccc(-c2ccccc2C(=O)Nc2ccc3c(c2)OC(F)(F)O3)cc1` [Example 57, 4′-isobutylbiphenyl-2-carboxylic acid (2,2-difluorobenzo[1,3]dioxol-5-yl)-amide], for which, in test [1], the IC50 worked out at 219 nM.

As to `CC(C)=Cc1ccc(-c2ccccc2C(=O)Nc2ccc3c(c2)OC(F)(F)O3)cc1` [Example 69, 4′-(2-methylpropenyl)biphenyl-2-carboxylic acid (2,2-difluorobenzo[1,3]-dioxol-5-yl)amide], the IC50 in test [1] is 288 nM.

Turning to `CC(C)c1ccc(-c2c(Cl)cccc2C(=O)Nc2ccc3c(c2)OC(F)(F)O3)cc1` [Example 90], the IC50 is 44 nM in test [2] and 30 nM in test [1].

Turning to `O=C(Nc1ccc2c(c1)OC(F)(F)O2)c1cccc(Cl)c1-c1ccc(OC(F)(F)F)cc1` [Example 91], the results for the IC50 in test [2] and in test [1] were 223 nM and 213 nM, respectively.

With `Cc1cccc(C(=O)Nc2ccc3c(c2)OC(F)(F)O3)c1-c1ccc(CCOCc2ccccc2)cc1` [Example 93, 4′-(2-benzyloxyethyl)-6-methylbiphenyl-2-carboxylic acid (2,2-difluorobenzo[1,3]dioxol-5-yl)amide], the IC50 in test [2] turned out to be 61 nM; in test [1], 65 nM.

Consider `COc1cccc(C(=O)Nc2ccc3c(c2)OC(F)(F)O3)c1-c1ccc(OC(F)(F)F)cc1` [Example 94], for which the IC50 in test [2] was determined as 193 nM; in test [1], 66 nM.

With `CCNC(=O)OCCc1ccc(-c2c(C)cccc2C(=O)Nc2ccc3c(c2)OC(F)(F)O3)cc1` [Example 98], in test [2], the IC50 was found to be 312 nM.
